Measured values taken from PubChem BioAssay (NCI).
Several values for one entry are separate records, joined by “and”; a condition that tells them apart may be missing. Equal values may be shown once.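 Growth conditions: 96-well plates. Treatment: test compound, 48 hours, 5 concentrations. Analysis: linear interpolation between bracketing concentrations; unreached endpoints set to highest concentration. GI50 is the concentration that inhibits growth by half. TGI: concentration producing complete growth inhibition.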 Where a SMILES comes first, the peptide text is derived from it. The star is where a group is joined. OSu = O=C1CCC(=O)N1O*

Experiments:
Assay in all cases: growth of human tumour cells (NCI), 48 h
[1] = tested on: SK-MEL-2 melanoma
[2] = tested on: HL-60(TB) leukemia
[3] = tested on: NCI-H460 lung
[4] = tested on: MDA-MB-435
[5] = tested on: OVCAR-3 ovarian
[6] = tested on: UO-31 renal
[7] = tested on: ACHN renal
[8] = tested on: LOX IMVI melanoma
[9] = tested on: HCC-2998 colon
[10] = tested on: SF-295 CNS
[11] = tested on: SK-MEL-5 melanoma
[12] = tested on: MDA-MB-231 breast
[13] = tested on: A498 renal
[14] = tested on: U251 CNS
[15] = tested on: SF-539 CNS
[16] = tested on: MALME-3M melanoma
[17] = tested on: SR leukemia
[18] = tested on: PC-3 prostate

Compound | TGI [1] [µM] | TGI [2] [µM] | TGI [3] [µM] | TGI [4] [µM] | TGI [5] | TGI [6] [µM] | TGI [7] [µM] | TGI [8] [µM] | TGI [9] [µM] | TGI [10] | TGI [11] [µM] | TGI [12] [µM] | TGI [13] [µM] | TGI [14] [µM] | TGI [15] [µM] | TGI [16] [µM] | TGI [17] [µM] | TGI [18] [µM] | GI50 [15]
C/C(O)=C(\C=NC(=S)c1ccncc1)C(=O)Nc1ccccc1C | > 100 | > 100 | > 100 | > 100 | > 100 µM | > 100 | > 100 | > 100 | > 100 | > 100 µM | > 100 | > 100 | > 100 | > 100 | > 100 |  |  |  | 
O/N=C\C(=Nc1ccc(Cc2ccc(N=C(/C=N\O)NO)cc2)cc1)NO | > 100 | 66.5 | > 100 |  | > 100 µM | 65 | > 100 | > 100 | > 100 | > 100 µM | > 100 |  | > 100 | > 100 | > 100 | > 100 |  |  | 
OC12c3ccccc3C1CCCCCC21OCCCO1 (centres undefined) | > 100 | > 100 | > 100 |  | > 100 µM | > 100 | > 100 | > 100 |  | > 100 µM | > 100 |  | > 100 | > 100 | > 100 | > 100 |  |  | 
CC(=O)NC1=C(N)C(=O)c2ccccc2C1=O | > 100 | > 100 | 40.6 |  | 61.9 µM | > 100 | > 100 | 28.6 | > 100 | > 100 µM | > 100 |  | > 100 | > 100 | > 100 | 50.4 |  |  | 
CCCCCCCCCC(=O)NC(Cc1ccc(O)cc1)C(=O)NCCCNCCCCNCCCNC(=O)[C@@H](N)CCCN=C(N)N (some centres undefined) |  | 48.1 | > 100 |  | > 100 µM | > 100 | 67 | > 100 | > 100 | 85.6 µM | 35.7 |  |  |  | 26.8 | 39.7 | > 100 |  | 
CC(=O)O[C@H]1C(=O)[C@@]2(C)[C@H]([C@H](OC(=O)c3ccccc3)[C@]3(O)C[C@H](OC(=O)[C@H](O)[C@@H](NC(=O)c4ccc(N(C)C)cc4)c4ccccc4)C(C)=C1C3(C)C)[C@]1(OC(C)=O)CO[C@@H]1C[C@@H]2O |  | 0.00566 |  |  | 0.0063 µM | > 50 | > 50 | > 50 |  | > 50 µM | > 22.1 | > 50 | > 50 | > 50 |  |  | > 18.5 | > 50 | 
CC(=O)NC1C(OCc2ccccc2)OC(CO)C(O)C1OCC(=O)N[C@@H](C)C(=O)N[C@H](CCC(=O)NCCNc1ccc([N+](=O)[O-])c2[nH]c3ccccc3c(=O)c12)C(N)=O (some centres undefined) |  | > 100 | 30.7 | > 100 | > 100 µM | 37.4 | 61.4 | 99.5 | 36 | > 100 µM | > 100 | 94.4 | 58 | > 100 | > 100 | > 100 | > 100 |  | 
COC(=O)CCC(=O)N1CC1C (centres undefined) | > 100 | > 100 | > 100 |  | > 100 µM | > 100 | > 100 | > 100 | > 100 | > 100 µM | > 100 |  | > 100 | > 100 | > 100 | > 100 | > 100 |  | 
NCCCCC(NC(=O)C(N)Cc1ccc(O)cc1)C(=O)NC(Cc1ccc(O)cc1)C(=O)NC(CCCCN)C(=O)ON1C(=O)CCC1=O (centres undefined) (H-YKYK-OSu; configuration not given here) | > 100 | > 100 | > 100 |  |  | > 100 | > 100 |  | > 100 |  | > 100 | > 100 | > 100 | > 100 |  | > 100 | > 100 | > 100 | 
CCC(=O)Nc1ccc(NCC(=O)Nc2ccc(OC)cc2)cc1 | 38.5 | > 100 |  | > 100 | 78.6 µM | > 100 | > 100 | 39.3 | 35.5 | > 100 µM | 32.7 |  | 87.9 |  | 38.6 | 49.5 | > 100 | 89.9 | 
C/C(O[Si](C(C)C)(C(C)C)C(C)C)=C(\C)C(=O)N(C)c1ccccc1Cl |  |  | > 100 | > 100 | > 100 µM | > 100 | > 100 | > 100 |  | > 100 µM | > 100 | > 100 | > 100 | > 100 | > 100 | > 100 |  |  | 
COc1cc(C2c3cc4c(cc3[C@@H](N(C)c3ccc(N(C)C)cc3)C3COC(=O)C23)OCO4)cc(OC)c1O (some centres undefined) | 16.9 | 7.84 | 24.2 |  | 0.516 µM | 19.4 | 18.8 | 16 | 20.8 | 0.325 µM | 13.7 |  | > 100 | 1.45 | 0.638 |  | 44.2 |  | 
C=CCn1c(=N)/c(=C(\N)O)s/c1=C1/SC(=S)N(c2ccc(C)cc2)C1=O | > 100 | > 100 | > 100 |  | > 100 µM | > 100 | > 100 |  |  | > 100 µM | > 100 |  | > 100 | > 100 | > 100 | > 100 | > 100 |  | 
COC(=O)CC(C(C(C)=O)C(=O)OCc1ccccc1)N1C(=O)OC(c2ccccc2)C1c1ccccc1 (centres undefined) | > 100 | > 100 | > 100 |  | 75.3 µM and > 100 µM |  | > 100 | > 100 | > 100 | 75.4 µM and > 100 µM | > 100 |  |  | > 100 | > 100 | > 100 | > 100 |  | 24.1 µM and > 100 µM
O=C(NCc1ccc2ccc3cccnc3c2n1)c1ccc[n+](Cc2ccccc2)c1 | > 100 | > 100 | > 100 |  | > 100 µM | > 100 | > 100 | > 100 | > 100 | > 100 µM | > 100 |  |  | > 100 | > 100 | > 100 | > 100 |  | 
Cc1ccc(/S(Cc2ccccc2)=N\S(=O)(=O)c2ccc(C)cc2)cc1 (centres undefined) |  | > 100 | > 100 | > 100 | > 100 µM | > 100 | > 100 |  |  | > 100 µM |  |  |  | > 100 | > 100 | > 100 | > 100 | > 100 | 
CC[n+]1c(/C=C/c2ccc(N(CCCl)CCCl)cc2)ccc2cc(I)ccc21 | 1.39 | 0.675 | 10.1 |  | 1.12 µM | 14.2 | 9.37 | 2.85 | 2.58 | 5.76 µM |  |  | 13.1 |  | 2.4 | 2.93 | 2.42 |  | 
CCn1c(CSc2nc(-c3ccccc3)c(-c3ccccc3)[nH]2)n[nH]c1=S | > 100 | > 100 | > 100 |  | > 100 µM | > 100 | > 100 | > 100 | > 100 | > 100 µM | > 100 |  | > 100 | > 100 | > 100 | > 100 | > 100 |  | 
CCOC(=O)C1(C(=O)OCC)C=C(c2ccccc2)N(C2OC(COC(C)=O)C(OC(C)=O)C(OC(C)=O)C2OC(C)=O)C1=S (centres undefined) | > 100 | 81.5 | > 100 | > 100 | > 100 µM | > 100 |  | > 100 | > 100 | > 100 µM | > 100 | > 100 | > 100 | > 100 | > 100 | > 100 | > 100 |  | 
Cc1ccc(C2C(Cl)C(=O)N2NC(=O)c2ccc(N)cc2)cc1 (centres undefined) | 19.8 | 31.2 | 35.5 |  | 36.7 µM | 86.5 | > 100 | 24.4 | > 100 | 47.8 µM | 29.7 |  | 56.4 | 28.3 | 41.6 | 32.1 |  |  | 
COc1ccc(/C(Cl)=C(\C=O)c2ccc(Cl)cc2)cc1OC | 57.2 | 7.74 | > 100 |  | 31.7 µM | 28 | 13.1 | 14.5 | 76.2 | 14.4 µM | > 100 |  | 54.3 | 14.7 |  | > 100 | 5.81 |  | 
COc1cc(OC)c(OC)cc1/C=C/c1cc[n+](C)c2ccccc12 |  | 33 | > 100 |  |  | > 100 | > 100 |  | > 100 | > 100 µM | 26.4 |  | > 100 | > 100 |  | > 100 | > 100 | 75.1 | 
COc1cc(S(=O)(=O)Nc2ccc(-c3csc(N4C(=O)C(Cl)C4c4cccs4)n3)cc2)ccc1Cl (centres undefined) | > 100 | > 100 | > 100 | > 100 | > 100 µM | > 100 | > 100 | 5.15 | > 100 | > 100 µM | > 100 |  | > 100 |  | > 100 | > 100 | 91.5 | > 100 | 
